Measured values published in patent publication US20090018111A1, “Novel Antimicrobial Medicament” (priority 2004, published 2009).
Where two headings read alike, the source gives them in different places.

Tests used:
Assay in all cases: Sensitivity test (agar dilution)
E. coli NIHJ JC-2 = format: cell-based, Escherichia coli; details: Escherichia coli, E. coli NIHJ JC-2
Protocol: (§1) The antibacterial activities were tested against various 18 bacteria (27 standard strains) which are representative bacteria caused clinically infectious disease (Staphylococcus aureus 3 strains, Staphylococcus epidermidis 1 strain, Micrococcus luteus 1 strain, Streptococcus pyogenes 1 strain, Enterococcus faecalis 1 strain, Enterococcus faecium 1 strain, Bacillus subtilis 1 strain, Escherichia coli 3 strains, Klebsiella pneumoniae 1 strain, Proteus mirabilis 1 strain, Proteus vulgaris 2 strains, Pseudomonas aeruginosa 3 strains, Serratia marcescens 2 strains, Enterobacter aerogenes 1 strain, Stenotrophomonas maltophilia 1 strain, Enterobacter cloacae 1 strain, Citrobacter freundii 1 strain, Moraxella catarrhalis 2 strains).
(§2) According to the standard method of Japan Chemotherapeutic Society (Chemotherapy, vol. […], p 76-79 (1981)) the test was carried out using the agar dilution method. After dissolving test samples in distilled water, agar medium containing the test samples was prepared in such a manner that the final concentration became twice serial dilution by pouring serially diluted combination drug solution or a single drug solution into agar medium. As agar medium was used Mueller Hinton Agar medium (MHA). Then, each strain was cultivated over night at 37° C. in an incubator and suspended in buffered saline solution with gelatin (BSG) in the concentration of about 10^6 CFU/ml. The suspension (about 5 μl) containing test strains was inoculated to the medium containing the test samples by Micro Planter.
(§3) When the sample is subjected to sensitivity test, this mixed solution was diluted by twice serial dilution method.
(§4) Furthermore, when the drug is solely used, each test sample was used as it is, and diluted by twice serial dilution method from the maximum concentration to the minimum concentration.
(§5) FIC index based on MIC value was calculated. […] Namely, when FIC index calculated by the following formula is equal or less than 1, the enhanced effect of the combination drug in said ratio is considered as positive. When FIC index is over 1, the enhanced effect of the combination drug in said ratio is considered as negative.
(§6) Formula of FIC index: FIC index=(MIC of Drug A in combination/MIC of Drug A alone)+(MIC of Drug B in combination/MIC of Drug B alone) N.C. in tables means being not calculated.

E. coli ML1410 = format: cell-based, Escherichia coli; details: Escherichia coli, E. coli ML1410
Protocol: as §1, §2, §3, §4, §5, §6

Str. pyogenes Cook = format: cell-based, Streptococcus pyogenes; details: Streptococcus pyogenes, Str. pyogenes Cook
Protocol: as §1, §2, §3, §4, §5, §6

B. subtilis ATCC6633 = format: cell-based, Bacillus subtilis; details: Bacillus subtilis, B. subtilis ATCC6633
Protocol: as §1, §2, §3, §4, §5, §6

E. faecalis ATCC19433 = format: cell-based, Enterococcus faecalis; details: Enterococcus faecalis, E. faecalis ATCC19433
Protocol: as §1, §2, §3, §4, §5, §6

P. vulgaris GN7919 = format: cell-based, Proteus vulgaris; details: Proteus vulgaris, P. vulgaris GN7919
Protocol: as §1, §2, §3, §4, §5, §6

P. vurgalis OX-19 = format: cell-based, Proteus vulgaris; details: Proteus vulgaris, P. vurgalis OX-19
Protocol: as §1, §2, §3, §4, §5, §6

E. aerogenes ATCC13048 = format: cell-based, Enterobacter aerogenes; details: Klebsiella aerogenes, E. aerogenes ATCC13048
Protocol: as §1, §2, §3, §4, §5, §6

P. aeruginosa TL-2666 = format: cell-based, Pseudomonas aeruginosa; details: Pseudomonas aeruginosa, P. aeruginosa TL-2666
Protocol: as §1, §2, §3, §4, §5, §6

P. aeruginosa IFO3451 = format: cell-based, Pseudomonas aeruginosa; details: Pseudomonas aeruginosa, P. aeruginosa IFO3451
Protocol: as §1, §2, §3, §4, §5, §6

P. aeruginosa TL-2667 = format: cell-based, Pseudomonas aeruginosa; details: Pseudomonas aeruginosa, P. aeruginosa TL-2667
Protocol: as §1, §2, §3, §4, §5, §6

[1] = system: S. aureus MS94088 (hetero-MRSA); format: cell-based, Staphylococcus aureus; details: Staphylococcus aureus, MRSA, S. aureus MS94088 (hetero-MRSA)
Protocol: as §1, §2, §3, §4, §5, §6

S. aureus 209P = format: cell-based, Staphylococcus aureus; details: Staphylococcus aureus, 209P, S. aureus 209P
Protocol: as §1, §2, §3, §4, §5, §6

[2] = NIHJJC2, drug alone, read-out: MIC alone
[3] = ML1410, drug alone, read-out: MIC alone
[4] = Concomitant (CAZ:SM = 1:1), read-out: MIC concomitant
[5] = drug alone, read-out: MIC alone
[6] = ATCC6633, drug alone, read-out: MIC alone
[7] = ATCC19433, drug alone, read-out: MIC alone
[8] = GN7919, drug alone, read-out: MIC alone
[9] = OX19, drug alone, read-out: MIC alone
[10] = ATCC13048, drug alone, read-out: MIC alone
[11] = TL2666, drug alone, read-out: MIC alone
[12] = IFO3451, drug alone, read-out: MIC alone
[13] = TL2667, drug alone, read-out: MIC alone
[14] = Concomitant (BIPM:SM = 1:1), read-out: MIC concomitant
[15] = Concomitant (DRPM:SM = 1:1), read-out: MIC concomitant

| Compound | MIC (E. coli NIHJ JC-2; [2]) | MIC (E. coli ML1410; [3]) | MIC (Str. pyogenes Cook; [5]) | MIC (B. subtilis ATCC6633; [6]) | MIC (E. faecalis ATCC19433; [7]) | MIC (P. vulgaris GN7919; [8]) | MIC (P. vurgalis OX-19; [9]) | MIC (E. aerogenes ATCC13048; [10]) | MIC (P. aeruginosa TL-2666; [11]) | MIC (P. aeruginosa IFO3451; [12]) | MIC (P. aeruginosa TL-2667; [13]) | MIC [1, 5] | MIC (S. aureus 209P; [5]) | further results |
| --- | --- | --- | --- | --- | --- | --- | --- | --- | --- | --- | --- | --- | --- | --- |
| CC(C)(O/N=C(\C(=O)N[C@@H]1C(=O)N2C(C(=O)[O-])=C(C[n+]3ccccc3)CS[C@H]12)c1csc(N)n1)C(=O)O [CAZ, ceftazidime] | 0.25 µg/mL | 0.25 µg/mL | 0.125 µg/mL | 2 µg/mL | > 32 µg/mL | 0.5 µg/mL | 0.031 µg/mL | 0.5 µg/mL | 0.5 µg/mL | 1 µg/mL | 1 µg/mL | > 32 µg/mL | 8 µg/mL | MIC (E. coli NIHJ JC-2; NIHJJC2, Concomitant (CAZ:SM = 1:1), read-out: MIC concomitant): 0.063 µg/mL; MIC (E. coli ML1410; ML1410, Concomitant (CAZ:SM = 1:1), read-out: MIC concomitant): 0.063 µg/mL; MIC (Str. pyogenes Cook; [4]): 0.004 µg/mL; MIC (B. subtilis ATCC6633; ATCC6633, Concomitant (CAZ:SM = 1:1), read-out: MIC concomitant): ≤ 0.002 µg/mL; MIC (E. faecalis ATCC19433; ATCC19433, Concomitant (CAZ:SM = 1:1), read-out: MIC concomitant): 1 µg/mL; MIC (P. vulgaris GN7919; GN7919, Concomitant (CAZ:SM = 1:1), read-out: MIC concomitant): 0.5 µg/mL; MIC (P. vurgalis OX-19; OX19, Concomitant (CAZ:SM = 1:1), read-out: MIC concomitant): 0.008 µg/mL; MIC (E. aerogenes ATCC13048; ATCC13048, Concomitant (CAZ:SM = 1:1), read-out: MIC concomitant): 8 µg/mL; MIC (P. aeruginosa TL-2666; TL2666, Concomitant (CAZ:SM = 1:1), read-out: MIC concomitant): 8 µg/mL; MIC (P. aeruginosa IFO3451; IFO3451, Concomitant (CAZ:SM = 1:1), read-out: MIC concomitant): 2 µg/mL; MIC (P. aeruginosa TL-2667; TL2667, Concomitant (CAZ:SM = 1:1), read-out: MIC concomitant): 8 µg/mL; MIC [1, 4]: 0.25 µg/mL; MIC (S. aureus 209P; [4]): 0.004 µg/mL |
| C[C@@H](O)[C@H]1C(=O)N2C(C(=O)[O-])=C(SC3Cn4cnc[n+]4C3)[C@H](C)[C@H]12 (stereo partly drawn) [BIPM, biapenem] | 0.031 µg/mL | 0.25 µg/mL | 0.008 µg/mL | 0.031 µg/mL | 4 µg/mL | 0.5 µg/mL | 0.25 µg/mL | 0.125 µg/mL | 1 µg/mL | 0.25 µg/mL | 8 µg/mL | 4 µg/mL | 0.031 µg/mL | MIC (E. coli NIHJ JC-2; NIHJJC2, Concomitant (BIPM:SM = 1:1), read-out: MIC concomitant): 0.031 µg/mL; MIC (E. coli ML1410; ML1410, Concomitant (BIPM:SM = 1:1), read-out: MIC concomitant): 0.063 µg/mL; MIC (Str. pyogenes Cook; [14]): 0.004 µg/mL; MIC (B. subtilis ATCC6633; ATCC6633, Concomitant (BIPM:SM = 1:1), read-out: MIC concomitant): ≤ 0.002 µg/mL; MIC (E. faecalis ATCC19433; ATCC19433, Concomitant (BIPM:SM = 1:1), read-out: MIC concomitant): 1 µg/mL; MIC (P. vulgaris GN7919; GN7919, Concomitant (BIPM:SM = 1:1), read-out: MIC concomitant): 0.25 µg/mL; MIC (P. vurgalis OX-19; OX19, Concomitant (BIPM:SM = 1:1), read-out: MIC concomitant): 0.031 µg/mL; MIC (E. aerogenes ATCC13048; ATCC13048, Concomitant (BIPM:SM = 1:1), read-out: MIC concomitant): 0.063 µg/mL; MIC (P. aeruginosa TL-2666; TL2666, Concomitant (BIPM:SM = 1:1), read-out: MIC concomitant): 1 µg/mL; MIC (P. aeruginosa IFO3451; IFO3451, Concomitant (BIPM:SM = 1:1), read-out: MIC concomitant): 0.25 µg/mL; MIC (P. aeruginosa TL-2667; TL2667, Concomitant (BIPM:SM = 1:1), read-out: MIC concomitant): 4 µg/mL; MIC [1, 14]: 0.25 µg/mL; MIC (S. aureus 209P; [14]): 0.008 µg/mL |
| C[C@@H](O)[C@H]1C(=O)N2C(C(=O)O)=C(S[C@@H]3CN[C@H](CNS(N)(=O)=O)C3)[C@H](C)[C@H]12 [DRPM, doripenem] | 0.016 µg/mL | 0.031 µg/mL | ≤ 0.002 µg/mL | 0.008 µg/mL | 4 µg/mL | 0.125 µg/mL | 0.031 µg/mL | 0.031 µg/mL | 1 µg/mL | 0.5 µg/mL | 2 µg/mL | 2 µg/mL | 0.016 µg/mL | MIC (E. coli NIHJ JC-2; NIHJJC2, Concomitant (DRPM:SM = 1:1), read-out: MIC concomitant): 0.016 µg/mL; MIC (E. coli ML1410; ML1410, Concomitant (DRPM:SM = 1:1), read-out: MIC concomitant): 0.031 µg/mL; MIC (Str. pyogenes Cook; [15]): ≤ 0.002 µg/mL; MIC (B. subtilis ATCC6633; ATCC6633, Concomitant (DRPM:SM = 1:1), read-out: MIC concomitant): ≤ 0.002 µg/mL; MIC (E. faecalis ATCC19433; ATCC19433, Concomitant (DRPM:SM = 1:1), read-out: MIC concomitant): 1 µg/mL; MIC (P. vulgaris GN7919; GN7919, Concomitant (DRPM:SM = 1:1), read-out: MIC concomitant): 0.063 µg/mL; MIC (P. vurgalis OX-19; OX19, Concomitant (DRPM:SM = 1:1), read-out: MIC concomitant): 0.031 µg/mL; MIC (E. aerogenes ATCC13048; ATCC13048, Concomitant (DRPM:SM = 1:1), read-out: MIC concomitant): 0.031 µg/mL; MIC (P. aeruginosa TL-2666; TL2666, Concomitant (DRPM:SM = 1:1), read-out: MIC concomitant): 1 µg/mL; MIC (P. aeruginosa IFO3451; IFO3451, Concomitant (DRPM:SM = 1:1), read-out: MIC concomitant): 0.25 µg/mL; MIC (P. aeruginosa TL-2667; TL2667, Concomitant (DRPM:SM = 1:1), read-out: MIC concomitant): 2 µg/mL; MIC [1, 15]: 0.25 µg/mL; MIC (S. aureus 209P; [15]): 0.004 µg/mL |
